Reference: PMC3390464 (Phytochemistry, 2012)

Biological target: Sigma 1 receptor
Assay: competitive radioligand binding assay

Ki: 2900 nM
Substance: 9,13-epoxy-6-hydroxylabdan-15,16-olide [compound 11]
